Test results from patent US20230121952A1 (INFLAZOME LIMITED, priority 2020, published 2023).

How the values were obtained:
[1] = molecular target: T1, NLRP3 (Homo sapiens, UniProt Q96P20); assay: THP-1 cells pyroptosis assay; type: cell-based; parameters: Seed THP-1 cells (25,000 cells/well) containing 1.0 μg/ml LPS; host or cells: THP-1 cells, LPS-primed, nigericin-stimulated; details: 1.0 μg/ml LPS, compound 3 hrs, nigericin 5 μM 1 hr, resazurin readout
Description: THP-1 cells (ATCC #TIB-202) were grown in RPMI containing L-glutamine (Gibco #11835) supplemented with 1 mM sodium pyruvate (Sigma #S8636) and penicillin (100 units/ml)/streptomycin (0.1 mg/ml) (Sigma #P4333) in 10% Fetal Bovine Serum (FBS) (Sigma #F0804). The cells were routinely passaged and grown to confluency (˜10^6 cells/ml). On the day of the experiment, THP-1 cells were harvested and resuspended into RPMI medium (without FBS). The cells were then counted and viability (>90%) checked by Trypan blue (Sigma #T8154). Appropriate dilutions were made to give a concentration of 625,000 cells/ml. To this diluted cell solution was added LPS (Sigma #L4524) to give a […] Final Assay Concentration (FAC). 40 μl of the final preparation was aliquoted into each well of a 96-well plate. The plate thus prepared was used for compound screening.
The following method step-by-step assay was followed for compound screening. • 1. Seed THP-1 cells (25,000 cells/well) containing 1.0 μg/ml LPS in 40 μl of RPMI medium (without FBS) in 96-well, black walled, clear bottom cell culture plates coated with poly-D-lysine (VWR #734-0317) • 2. Add 5 μl compound (8 points half-log dilution, with 10 μM top dose) or vehicle (DMSO 0.1% FAC) to the appropriate wells • 3. Incubate for 3 hrs at 37° C., 5% CO2 • 4. Add 5 μl nigericin (Sigma #N7143) (FAC 5 μM) to all wells • 5. Incubate for 1 hr at 37° C., 5% CO2 • 6. At the end of the incubation period, spin plates at 300×g for 3 mins and remove supernatant • 7. Then add 50 μl of resazurin (Sigma #R7017) (FAC 100 μM resazurin in RPMI medium without FBS) and incubate plates for a further 1-2 hrs at 37° C. and 5% CO2 • 8. Plates were read in an Envision reader at Ex 560 nm and Em 590 nm • 9. IC50 data is fitted to a non-linear regression equation (log inhibitor vs response-variable slope 4-parameters) 96-well Plate Map

[2] = molecular target: T1, NLRP3; assay: Human whole blood IL-1β release assay; type: cell-based; parameters: Human whole blood in Li-heparin tubes was obtained from healthy donors; from tissue; host or cells: human whole blood from healthy volunteer donors, LPS-primed, nigericin-stimulated; details: 1 μg/ml LPS, compound 3 hrs, nigericin 10 μM 1 hr, IL-1β in supernatant (AlphaLisa), read-out: HWB IC50
Description: For systemic delivery, the ability to inhibit NLRP3 when the compounds are present within the bloodstream is of great importance. For this reason, the NLRP3 inhibitory activity of a number of compounds in human whole blood was investigated in accordance with the following protocol.
Human whole blood in Li-heparin tubes was obtained from healthy donors from a volunteer donor panel. • 1. Plate out 80 μl of whole blood containing 1 μg/ml of LPS in 96-well, clear bottom cell culture plate (Corning #3585) • 2. Add 10 μl compound (8 points half-log dilution with 10 μM top dose) or vehicle (DMSO 0.1% FAC) to the appropriate wells • 3. Incubate for 3 hrs at 37° C., 5% CO2 • 4. Add 10 μl nigericin (Sigma #N7143) (10 μM FAC) to all wells • 5. Incubate for 1 hr at 37° C., 5% CO2 • 6. At the end of the incubation period, spin plates at 300×g for 5 mins to pellet cells and remove 20 μl of supernatant and add to 96-well v-bottom plates for IL-1β analysis (note: these plates containing the supernatants can be stored at −80° C. to be analysed at a later date) • 7. IL-1β was measured according to the manufacturer protocol (Perkin Elmer-AlphaLisa IL-1 Kit AL220F-5000) • 8. IC50 data is fitted to a non-linear regression equation (log inhibitor vs response-variable slope 4-parameters)

T1 sequence (Q96P20 whole entry): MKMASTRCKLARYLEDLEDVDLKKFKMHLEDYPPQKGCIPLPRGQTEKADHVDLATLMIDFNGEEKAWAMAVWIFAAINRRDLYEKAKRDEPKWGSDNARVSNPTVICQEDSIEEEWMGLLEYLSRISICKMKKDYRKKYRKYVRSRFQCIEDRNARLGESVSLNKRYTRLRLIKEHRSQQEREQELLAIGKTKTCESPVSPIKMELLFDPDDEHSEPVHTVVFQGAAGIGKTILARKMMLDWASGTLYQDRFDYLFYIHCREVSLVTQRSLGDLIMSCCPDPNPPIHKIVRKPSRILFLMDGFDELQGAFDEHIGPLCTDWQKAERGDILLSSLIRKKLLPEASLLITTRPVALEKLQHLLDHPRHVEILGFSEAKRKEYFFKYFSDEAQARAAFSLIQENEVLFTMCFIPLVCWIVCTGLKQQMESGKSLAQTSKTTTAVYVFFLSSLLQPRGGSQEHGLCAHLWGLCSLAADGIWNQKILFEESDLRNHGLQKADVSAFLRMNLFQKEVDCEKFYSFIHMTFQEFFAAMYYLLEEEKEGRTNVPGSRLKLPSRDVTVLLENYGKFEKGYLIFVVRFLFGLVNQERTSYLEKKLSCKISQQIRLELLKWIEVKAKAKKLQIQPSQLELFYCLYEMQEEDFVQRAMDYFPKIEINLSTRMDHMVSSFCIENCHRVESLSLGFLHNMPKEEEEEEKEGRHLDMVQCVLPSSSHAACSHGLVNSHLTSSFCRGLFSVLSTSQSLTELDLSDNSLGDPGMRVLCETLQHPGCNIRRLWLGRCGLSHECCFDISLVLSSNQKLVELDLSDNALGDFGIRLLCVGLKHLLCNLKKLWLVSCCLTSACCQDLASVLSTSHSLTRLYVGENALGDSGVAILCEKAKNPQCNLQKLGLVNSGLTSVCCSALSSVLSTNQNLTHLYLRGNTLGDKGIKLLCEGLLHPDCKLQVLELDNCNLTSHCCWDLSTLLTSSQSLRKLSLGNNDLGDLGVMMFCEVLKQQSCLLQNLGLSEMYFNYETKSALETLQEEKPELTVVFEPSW

IC50 [1] | IC50 [2] | Compound
≤ 500 nM | ≤ 500 nM | O=S1(=O)c2nnc([nH]2)Nc2c(ccc3c2CCC3)-c2ccnc(c2)OCCN2CCCC23CCN1CC3 [Example 5, 8-oxa-28λ^6-thia-5,10,23,25,26,29,34-heptazaheptacyclo-[27.2.2.1^9,13.1^24,27.0^1,5.0^14,22.0^17,21]pentatriaconta-9(35),10,12,14,16,21,24,26-octaene 28,28-dioxide]
≤ 5000 nM | ≤ 10000 nM | CC1(C)COc2cc(ccn2)-c2ccc3c(c2Nc2nnc([nH]2)S(=O)(=O)c2cccc1c2)CCC3 [Example 8, 22,22-dimethyl-24-oxa-16 λ^6-thia-11,13,14,26,31-pentazahexacyclo-[23.3.1.1^12,15.1^17,21.0^2,10.0^5,9] hentriaconta-1(28),2,4,9,12,14,17,19,21(30),25(29),26-undecaene 16,16-dioxide]
≤ 500 nM | ≤ 500 nM | CN1CCOc2cc(ccn2)-c2ccc3c(c2Nc2nnc([nH]2)S(=O)(=O)N2CCC1CC2)CCC3 [Example 9, 25-methyl-22-oxa-2λ^6-thia-1,4,5,7,20,25,32-heptaazahexacyclo-[24.2.2.1^3,6.1^17,21.0^8,16.0^9,13]dotriaconta-3,5,8,13,15,17,19,21(31)-octaene-2,2-dioxide]
≤ 100 nM | ≤ 500 nM | CC1(C)COc2cc(ccn2)-c2ccc3c(c2Nc2nnc([nH]2)S(=O)(=O)N2CC4(CCN1C4)C2)CCC3 [Example 10, 23,23-dimethyl-25-oxa-16λ^6-thia-11,13,14,17,22,27,33-heptaazaheptacyclo[24.3.1.1^12,15.1^17,19.1^19,22.0^2,10.0^5,9]tritriaconta-1(29),2,4,9,12,14,26(30),27-octaene-16,16-dioxide]
≤ 500 nM | ≤ 500 nM | CN1CCOc2cc(ccn2)-c2ccc3c(c2Nc2nnc([nH]2)S(=O)(=O)N2CC[C@@H](C1)C2)CCC3 [Example 12, (20S)-22-methyl-25-oxa-16λ^6-thia-11,13,14,17,22,27,32-heptaazahexacyclo[24.3.1.1^12,15.1^17,20.0^2,10.0^5,9]dotriaconta-1(29),2,4,9,12,14,26(30),27-octaene-16,16-dioxide]

Compound | IC50 [1] | IC50 [2]
CN1CCOc2cc(ccn2)-c2ccc3c(c2Nc2nnc([nH]2)S(=O)(=O)N2CC(C1)C2)CCC3 [Example 11, 21-methyl-24-oxa-16λ^6-thia-11,13,14,17,21,26,31-heptaazahexacyclo-[23.3.1.1^12,15.1^17,19.0^2,10.0^5,9]hentriaconta-1(28),2,4,9,12,14,25(29),26-octaene-16,16-dioxide] | ≤ 100 nM | ≤ 500 nM
